# Laboratory results as given in ChEMBL document CHEMBL1909046, “DrugMatrix in vitro pharmacology data”.
# Key:
# [1] = molecular target: T1, C-X-C chemokine receptor type 2 (Homo sapiens, UniProt P25025); assay type: cell membranes, Membrane; conditions: cho-k1; note: in other assays of this panel Not Active means under 50% inhibition at 10 µM
# T1 sequence (P25025 whole entry): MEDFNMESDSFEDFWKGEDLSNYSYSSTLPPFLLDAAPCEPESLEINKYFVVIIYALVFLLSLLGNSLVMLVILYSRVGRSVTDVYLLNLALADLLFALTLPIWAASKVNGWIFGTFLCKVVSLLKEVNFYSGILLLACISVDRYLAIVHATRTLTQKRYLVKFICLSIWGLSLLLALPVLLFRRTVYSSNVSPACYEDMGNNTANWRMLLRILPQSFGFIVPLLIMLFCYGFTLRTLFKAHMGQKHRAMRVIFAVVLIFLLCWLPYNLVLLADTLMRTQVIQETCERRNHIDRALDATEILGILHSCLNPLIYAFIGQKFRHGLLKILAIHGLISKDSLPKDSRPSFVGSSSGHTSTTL
# Estrogen receptor = molecular target: T2, Estrogen receptor (Homo sapiens, UniProt P03372); conditions: sf9; note: in other assays of this panel Not Active means under 50% inhibition at 10 µM
# T2 sequence (P03372 whole entry): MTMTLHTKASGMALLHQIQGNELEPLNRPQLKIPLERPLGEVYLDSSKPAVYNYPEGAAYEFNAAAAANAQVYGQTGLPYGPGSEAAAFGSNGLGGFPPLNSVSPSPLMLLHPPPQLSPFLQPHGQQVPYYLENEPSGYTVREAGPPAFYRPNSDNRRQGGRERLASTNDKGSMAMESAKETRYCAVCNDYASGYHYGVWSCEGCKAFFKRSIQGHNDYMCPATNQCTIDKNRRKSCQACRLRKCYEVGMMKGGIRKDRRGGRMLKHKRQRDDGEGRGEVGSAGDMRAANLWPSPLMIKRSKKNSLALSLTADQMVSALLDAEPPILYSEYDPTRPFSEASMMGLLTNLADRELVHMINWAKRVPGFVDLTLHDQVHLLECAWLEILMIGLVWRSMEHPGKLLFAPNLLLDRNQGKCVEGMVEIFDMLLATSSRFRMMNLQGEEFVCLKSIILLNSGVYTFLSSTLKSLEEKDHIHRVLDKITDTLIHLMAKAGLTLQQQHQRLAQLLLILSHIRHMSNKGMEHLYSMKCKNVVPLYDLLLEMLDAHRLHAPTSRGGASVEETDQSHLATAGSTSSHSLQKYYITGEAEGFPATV
# [2] = molecular target: T3, Muscarinic acetylcholine receptor M5 (Homo sapiens, UniProt P08912); assay type: cell membranes, CHO-K1, Membrane; conditions: for Ki: read-out: Ki; for all read-outs here: in other assays of this panel Not Active means under 50% inhibition at 10 µM
# T3 sequence (P08912 whole entry): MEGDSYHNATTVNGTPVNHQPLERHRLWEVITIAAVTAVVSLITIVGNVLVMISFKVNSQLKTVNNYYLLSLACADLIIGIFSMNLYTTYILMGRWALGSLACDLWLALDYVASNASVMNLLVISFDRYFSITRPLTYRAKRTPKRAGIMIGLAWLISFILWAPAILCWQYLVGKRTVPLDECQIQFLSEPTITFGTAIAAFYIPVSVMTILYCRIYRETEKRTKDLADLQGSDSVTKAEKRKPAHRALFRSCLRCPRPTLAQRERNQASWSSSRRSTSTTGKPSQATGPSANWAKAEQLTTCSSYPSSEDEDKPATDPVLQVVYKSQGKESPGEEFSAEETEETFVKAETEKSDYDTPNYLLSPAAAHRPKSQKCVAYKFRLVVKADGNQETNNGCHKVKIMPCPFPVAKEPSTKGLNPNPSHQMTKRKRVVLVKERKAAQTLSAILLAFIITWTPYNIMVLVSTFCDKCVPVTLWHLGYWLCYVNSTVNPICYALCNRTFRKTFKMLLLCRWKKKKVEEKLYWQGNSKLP
# [3] = molecular target: T4, 5-hydroxytryptamine receptor 1A (Rattus norvegicus, UniProt P19327); assay type: cell membranes, CHO-K1, Membrane; note: in other assays of this panel Not Active means under 50% inhibition at 10 µM
# T4 sequence (P19327 whole entry): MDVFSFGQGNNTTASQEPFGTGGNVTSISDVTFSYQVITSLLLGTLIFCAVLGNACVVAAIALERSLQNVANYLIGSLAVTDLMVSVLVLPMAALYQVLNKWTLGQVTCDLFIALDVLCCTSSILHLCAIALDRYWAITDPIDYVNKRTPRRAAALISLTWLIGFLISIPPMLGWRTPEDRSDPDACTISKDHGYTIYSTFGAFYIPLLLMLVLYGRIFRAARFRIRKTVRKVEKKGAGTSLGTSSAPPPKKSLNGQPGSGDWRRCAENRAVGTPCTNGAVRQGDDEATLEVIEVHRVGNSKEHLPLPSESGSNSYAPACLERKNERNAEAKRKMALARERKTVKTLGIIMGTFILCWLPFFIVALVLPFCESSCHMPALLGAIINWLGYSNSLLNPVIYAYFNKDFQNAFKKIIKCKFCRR
# [4] = DRUGMATRIX: Serotonin (5-Hydroxytryptamine) 5-HT3 radioligand binding (ligand: [3H] GR-65630); assay type: cell membranes, Membrane; conditions: hek293; Not Active = under 50% inhibition at 10 µM
# Cytochrome P450 2C9 = Cytochrome P450 2C9 (Homo sapiens, UniProt P11712); conditions: bti-tn-5b1-4; note: in other assays of this panel Not Active means under 50% inhibition at 10 µM
# Cytochrome P450 2C9, sequence (P11712 whole entry): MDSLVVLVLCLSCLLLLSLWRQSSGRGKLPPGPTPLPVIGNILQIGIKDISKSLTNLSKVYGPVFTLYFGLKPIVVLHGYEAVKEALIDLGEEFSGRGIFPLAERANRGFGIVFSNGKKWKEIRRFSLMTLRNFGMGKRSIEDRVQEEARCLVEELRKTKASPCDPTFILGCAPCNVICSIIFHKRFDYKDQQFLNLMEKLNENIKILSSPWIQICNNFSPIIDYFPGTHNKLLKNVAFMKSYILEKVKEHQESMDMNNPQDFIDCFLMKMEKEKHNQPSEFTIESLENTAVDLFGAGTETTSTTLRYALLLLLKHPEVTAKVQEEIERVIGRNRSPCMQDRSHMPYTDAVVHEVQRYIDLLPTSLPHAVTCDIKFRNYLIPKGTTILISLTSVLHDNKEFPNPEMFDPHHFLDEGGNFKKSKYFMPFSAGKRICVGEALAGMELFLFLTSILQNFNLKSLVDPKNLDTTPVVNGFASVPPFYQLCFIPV
# Cytochrome P450 2E1 = Cytochrome P450 2E1 (Homo sapiens, UniProt P05181); conditions: bti-tn-5b1-4; note: in other assays of this panel Not Active means under 50% inhibition at 10 µM
# Cytochrome P450 2E1, sequence (P05181 whole entry): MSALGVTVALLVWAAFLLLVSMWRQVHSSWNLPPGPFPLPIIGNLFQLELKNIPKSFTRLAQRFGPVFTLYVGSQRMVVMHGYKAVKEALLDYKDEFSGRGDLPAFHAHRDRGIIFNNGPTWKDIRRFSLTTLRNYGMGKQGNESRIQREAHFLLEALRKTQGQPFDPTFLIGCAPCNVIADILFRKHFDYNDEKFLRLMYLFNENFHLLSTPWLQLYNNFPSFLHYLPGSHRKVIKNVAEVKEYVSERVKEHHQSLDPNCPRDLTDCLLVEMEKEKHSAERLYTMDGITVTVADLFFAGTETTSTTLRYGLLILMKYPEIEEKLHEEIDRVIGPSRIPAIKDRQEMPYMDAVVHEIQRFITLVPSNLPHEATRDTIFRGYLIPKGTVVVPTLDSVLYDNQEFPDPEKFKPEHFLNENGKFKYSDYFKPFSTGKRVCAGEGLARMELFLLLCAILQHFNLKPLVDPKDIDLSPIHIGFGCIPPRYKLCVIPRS
Structure (SMILES),IC50 [1],IC50 (Estrogen receptor),IC50 ([2]; cho-k1),IC50 ([3]; cho-k1),IC50 [4],Ki [4],IC50 (Cytochrome P450 2C9),Ki (Cytochrome P450 2C9),IC50 (Cytochrome P450 2E1),Ki (Cytochrome P450 2E1),IC50 ([2]; read-out: IC50) [nM],Ki [2] [nM],IC50 ([3]; read-out: IC50) [nM],Ki ([3]; read-out: Ki) [nM]
O=C(O)c1cc(-c2ccc(F)cc2F)ccc1O [DIFLUNISAL],Not Active,Not Active,Not Active,Not Active,Not Active,Not Active,Not Active,Not Active,Not Active,Not Active,,,,
CCn1cc(C(=O)O)c(=O)c2cc(F)c(N3CCNC(C)C3)c(F)c21 (configuration not stated) [LOMEFLOXACIN],Not Active,Not Active,Not Active,Not Active,Not Active,Not Active,Not Active,Not Active,Not Active,Not Active,,,,
CN(C)C(=O)Oc1cccc([N+](C)(C)C)c1.[Br-] [NEOSTIGMINE BROMIDE],Not Active,Not Active,Not Active,Not Active,Not Active,Not Active,Not Active,Not Active,Not Active,Not Active,,,,
CN1CCCC(CN2c3ccccc3Sc3ccccc32)C1 (configuration not stated) [MEPAZINE],Not Active,Not Active,,Not Active,Not Active,Not Active,Not Active,Not Active,Not Active,Not Active,40,28,,
ClC(Cl)(Cl)Cl [CARBON TETRACHLORIDE],Not Active,Not Active,Not Active,Not Active,Not Active,Not Active,Not Active,Not Active,,,,,,
CCN(CC)CCCC(C)Nc1c2ccc(Cl)cc2nc2ccc(OC)cc12 (configuration not stated) [QUINACRINE],Not Active,Not Active,,Not Active,Not Active,Not Active,Not Active,Not Active,Not Active,Not Active,3740,2680,,
CC[C@H]1[C@@H]2C[C@H]3[C@@H]4N(C)c5ccccc5[C@]45C[C@@H]([C@@H]2[C@H]5O)N3[C@@H]1O [AJMALINE],Not Active,Not Active,Not Active,Not Active,Not Active,Not Active,Not Active,Not Active,Not Active,Not Active,,,,
CC(C)C[C@H]1C(=O)N2CCC[C@H]2[C@]2(O)O[C@](NC(=O)[C@@H]3C=C4c5cccc6[nH]cc(c56)C[C@H]4N(C)C3)(C(C)C)C(=O)N12 [ERGOCRYPTINE],Not Active,Not Active,Not Active,,Not Active,Not Active,,,Not Active,Not Active,,,2.63,1.5
CCN(C(C)=O)c1cccc(-c2ccnc3c(C#N)cnn23)c1 [ZALEPLON],Not Active,Not Active,Not Active,Not Active,Not Active,Not Active,Not Active,Not Active,Not Active,Not Active,,,,
N[C@@H](Cn1ccc(=O)c(O)c1)C(=O)O [L-MIMOSINE],Not Active,Not Active,Not Active,Not Active,Not Active,Not Active,,,,,,,,
Nc1cc(-c2ccncc2)c[nH]c1=O [INAMRINONE],Not Active,Not Active,Not Active,Not Active,Not Active,Not Active,Not Active,Not Active,Not Active,Not Active,,,,
CCC1=C(C)CN(C(=O)NCCc2ccc(S(=O)(=O)NC(=O)N[C@H]3CC[C@H](C)CC3)cc2)C1=O [GLIMEPIRIDE],Not Active,Not Active,Not Active,Not Active,Not Active,Not Active,,,Not Active,Not Active,,,,
CC(=O)OCC(=O)[C@@]12OC(C)(C)O[C@@H]1C[C@H]1[C@@H]3C[C@H](F)C4=CC(=O)C=C[C@]4(C)[C@@]3(F)[C@@H](O)C[C@@]12C [FLUOCINONIDE],Not Active,Not Active,Not Active,Not Active,Not Active,Not Active,,,,,,,,
CCOc1nc2cccc(C(=O)O)c2n1Cc1ccc(-c2ccccc2-c2nnn[nH]2)cc1,Not Active,Not Active,Not Active,Not Active,Not Active,Not Active,,,Not Active,Not Active,,,,
O=C(c1ccccc1F)N1CCC(Cc2ccccc2)CC1,Not Active,Not Active,Not Active,Not Active,Not Active,Not Active,,,Not Active,Not Active,,,,
N=C(N)c1ccc(OCCCCCOc2ccc(C(=N)N)cc2)cc1 [PENTAMIDINE],Not Active,Not Active,,Not Active,Not Active,Not Active,,,Not Active,Not Active,2880,2070,,
CC(C)(C(=O)O)c1ccc(C(O)CCCN2CCC(C(O)(c3ccccc3)c3ccccc3)CC2)cc1 (configuration not stated) [FEXOFENADINE],Not Active,Not Active,Not Active,Not Active,Not Active,Not Active,,,Not Active,Not Active,,,,
NNCCc1ccccc1 [PHENELZINE],Not Active,Not Active,Not Active,Not Active,Not Active,Not Active,,,Not Active,Not Active,,,,
CC(C)(C)NCC(O)COc1cccc2c1CC(O)C(O)C2 (configuration not stated) [NADOLOL],Not Active,Not Active,Not Active,Not Active,Not Active,Not Active,,,Not Active,Not Active,,,,
C[C@@H]1C/C=C/C=C/C=C/C=C/[C@H](O[C@@H]2O[C@H](C)[C@@H](O)[C@H](N)[C@@H]2O)C[C@@H]2O[C@](O)(C[C@@H](O)C[C@H]3O[C@@H]3/C=C/C(=O)O1)C[C@H](O)[C@H]2C(=O)O [NATAMYCIN],Not Active,Not Active,Not Active,Not Active,Not Active,Not Active,,,,,,,,
CS(=O)(=O)Nc1ccc([N+](=O)[O-])cc1Oc1ccccc1 [NIMESULIDE],Not Active,,Not Active,Not Active,Not Active,Not Active,Not Active,Not Active,Not Active,Not Active,,,,
NC(=O)N1c2ccccc2CC(=O)c2ccccc21 [OXCARBAZEPINE],Not Active,,Not Active,Not Active,Not Active,Not Active,Not Active,Not Active,Not Active,Not Active,,,,
